Results published in PubChem BioAssay AID1259407 (Chemical Carcinogenesis Research Information System (CCRIS), 2018).
Activity calls are given as the source filed them. How the calls were made is not given here.

System: CCRIS mutagenicity, Ames/micronucleus/aberration tests
Assay: CCRIS mutagenicity studies
[1] = Test System: AMES SALMONELLA TYPHIMURIUM, Strain/Indicator: TA1535, Metabolic Activation: NONE, Method: PREINCUBATION
[2] = Test System: AMES SALMONELLA TYPHIMURIUM, Strain/Indicator: TA1537, Metabolic Activation: NONE, Method: PREINCUBATION

Measured: mutagenic call

CC1=CC[C@H]2C(C)=CC[C@@H](C(C)C)[C@@H]2C1
inactive: End Point: IN VITRO CHROMOSOMAL ABERRATIONS, Test System: CHINESE HAMSTER OVARY CELLS, Metabolic Activation: NONE inactive; negative | End Point: IN VITRO CHROMOSOMAL ABERRATIONS, Test System: CHINESE HAMSTER OVARY CELLS, Metabolic Activation: RAT, LIVER, S-9, AROCLOR 1254 inactive; negative | Test System: AMES SALMONELLA TYPHIMURIUM, Strain/Indicator: TA98, Metabolic Activation: HAMSTER, LIVER, S-9, AROCLOR 1254, Method: PREINCUBATION inactive; negative | Test System: AMES SALMONELLA TYPHIMURIUM, Strain/Indicator: TA98, Metabolic Activation: NONE, Method: PREINCUBATION inactive; negative | Test System: AMES SALMONELLA TYPHIMURIUM, Strain/Indicator: TA98, Metabolic Activation: RAT, LIVER, S-9, AROCLOR 1254, Method: PREINCUBATION inactive; negative | Test System: AMES SALMONELLA TYPHIMURIUM, Strain/Indicator: TA100, Metabolic Activation: HAMSTER, LIVER, S-9, AROCLOR 1254, Method: PREINCUBATION inactive; negative | Test System: AMES SALMONELLA TYPHIMURIUM, Strain/Indicator: TA100, Metabolic Activation: NONE, Method: PREINCUBATION inactive; negative | Test System: AMES SALMONELLA TYPHIMURIUM, Strain/Indicator: TA100, Metabolic Activation: RAT, LIVER, S-9, AROCLOR 1254, Method: PREINCUBATION inactive; negative | Test System: AMES SALMONELLA TYPHIMURIUM, Strain/Indicator: TA1535, Metabolic Activation: HAMSTER, LIVER, S-9, AROCLOR 1254, Method: PREINCUBATION inactive; negative | [1] inactive; negative | Test System: AMES SALMONELLA TYPHIMURIUM, Strain/Indicator: TA1535, Metabolic Activation: RAT, LIVER, S-9, AROCLOR 1254, Method: PREINCUBATION inactive; negative | Test System: AMES SALMONELLA TYPHIMURIUM, Strain/Indicator: TA1537, Metabolic Activation: HAMSTER, LIVER, S-9, AROCLOR 1254, Method: PREINCUBATION inactive; negative | [2] inactive; negative | Test System: AMES SALMONELLA TYPHIMURIUM, Strain/Indicator: TA1537, Metabolic Activation: RAT, LIVER, S-9, AROCLOR 1254, Method: PREINCUBATION inactive; negative

CCCCCCCCCc1ccc(O)cc1
inactive: Test System: AMES SALMONELLA TYPHIMURIUM, Strain/Indicator: TA97, Metabolic Activation: NONE, Method: PREINCUBATION inactive; negative | Test System: AMES SALMONELLA TYPHIMURIUM, Strain/Indicator: TA97, Metabolic Activation: S-9, Method: PREINCUBATION inactive; negative | Test System: AMES SALMONELLA TYPHIMURIUM, Strain/Indicator: TA98, Metabolic Activation: RAT, LIVER, S-9, KC 500, Method: PREINCUBATION inactive; negative | Test System: AMES SALMONELLA TYPHIMURIUM, Strain/Indicator: TA98, Metabolic Activation: RAT, LIVER, S-9, SODIUM PHENOBARBITAL AND 5,6-BENZOFLAVONE, Method: PREINCUBATION inactive; negative | Test System: AMES SALMONELLA TYPHIMURIUM, Strain/Indicator: TA98, Metabolic Activation: S-9, Method: PREINCUBATION inactive; negative | Test System: AMES SALMONELLA TYPHIMURIUM, Strain/Indicator: TA100, Metabolic Activation: RAT, LIVER, S-9, KC 500, Method: PREINCUBATION inactive; negative | Test System: AMES SALMONELLA TYPHIMURIUM, Strain/Indicator: TA100, Metabolic Activation: RAT, LIVER, S-9, SODIUM PHENOBARBITAL AND 5,6-BENZOFLAVONE, Method: PREINCUBATION inactive; negative | Test System: AMES SALMONELLA TYPHIMURIUM, Strain/Indicator: TA100, Metabolic Activation: S-9, Method: PREINCUBATION inactive; negative | Test System: AMES SALMONELLA TYPHIMURIUM, Strain/Indicator: TA102, Metabolic Activation: RAT, LIVER, S-9, SODIUM PHENOBARBITAL AND 5,6-BENZOFLAVONE, Method: PREINCUBATION inactive; negative | Test System: AMES SALMONELLA TYPHIMURIUM, Strain/Indicator: TA102, Metabolic Activation: S-9, Method: PREINCUBATION inactive; negative | Test System: AMES SALMONELLA TYPHIMURIUM, Strain/Indicator: TA104, Metabolic Activation: NONE, Method: PREINCUBATION inactive; negative | Test System: AMES SALMONELLA TYPHIMURIUM, Strain/Indicator: TA104, Metabolic Activation: RAT, LIVER, S-9, SODIUM PHENOBARBITAL AND 5,6-BENZOFLAVONE, Method: PREINCUBATION inactive; negative | Test System: AMES SALMONELLA TYPHIMURIUM, Strain/Indicator: TA104, Metabolic Activation: S-9, Method: PREINCUBATION inactive; negative | [1] inactive; negative | Test System: AMES SALMONELLA TYPHIMURIUM, Strain/Indicator: TA1535, Metabolic Activation: RAT, LIVER, S-9, KC 500, Method: PREINCUBATION inactive; negative | Test System: AMES SALMONELLA TYPHIMURIUM, Strain/Indicator: TA1535, Metabolic Activation: RAT, LIVER, S-9, SODIUM PHENOBARBITAL AND 5,6-BENZOFLAVONE, Method: PREINCUBATION inactive; negative | [2] inactive; negative | Test System: AMES SALMONELLA TYPHIMURIUM, Strain/Indicator: TA1537, Metabolic Activation: RAT, LIVER, S-9, KC 500, Method: PREINCUBATION inactive; negative | Test System: AMES SALMONELLA TYPHIMURIUM, Strain/Indicator: TA1537, Metabolic Activation: RAT, LIVER, S-9, SODIUM PHENOBARBITAL AND 5,6-BENZOFLAVONE, Method: PREINCUBATION inactive; negative | Test System: AMES SALMONELLA TYPHIMURIUM, Strain/Indicator: TA1538, Metabolic Activation: NONE, Method: PREINCUBATION inactive; negative | Test System: AMES SALMONELLA TYPHIMURIUM, Strain/Indicator: TA1538, Metabolic Activation: RAT, LIVER, S-9, KC 500, Method: PREINCUBATION inactive; negative | Test System: E. COLI, Strain/Indicator: WP2UVRA/PKM101, Metabolic Activation: NONE, Method: PREINCUBATION inactive; negative | Test System: E. COLI, Strain/Indicator: WP2UVRA/PKM101, Metabolic Activation: RAT, LIVER, S-9, SODIUM PHENOBARBITAL AND 5,6-BENZOFLAVONE, Method: PREINCUBATION inactive; negative | Test System: E. COLI, Strain/Indicator: WP2 UVRA, Metabolic Activation: NONE, Method: PREINCUBATION inactive; negative | Test System: E. COLI, Strain/Indicator: WP2UVRA, Metabolic Activation: NONE, Method: PREINCUBATION inactive; negative | Test System: E. COLI, Strain/Indicator: WP2 UVRA, Metabolic Activation: RAT, LIVER, S-9, KC 500, Method: PREINCUBATION inactive; negative | Test System: E. COLI, Strain/Indicator: WP2UVRA, Metabolic Activation: RAT, LIVER, S-9, SODIUM PHENOBARBITAL AND 5,6-BENZOFLAVONE, Method: PREINCUBATION inactive; negative

O=C(NC(=O)c1c(F)cccc1F)Nc1cc(Cl)c(Oc2ncc(C(F)(F)F)cc2Cl)c(Cl)c1
inactive: Test System: AMES SALMONELLA TYPHIMURIUM, Strain/Indicator: TA98, Metabolic Activation: NONE, Method: STANDARD PLATE inactive; negative | Test System: AMES SALMONELLA TYPHIMURIUM, Strain/Indicator: TA98, Metabolic Activation: RAT, LIVER, S-9, AROCLOR 1254, Method: STANDARD PLATE inactive; negative | Test System: AMES SALMONELLA TYPHIMURIUM, Strain/Indicator: TA100, Metabolic Activation: NONE, Method: STANDARD PLATE inactive; negative | Test System: AMES SALMONELLA TYPHIMURIUM, Strain/Indicator: TA100, Metabolic Activation: RAT, LIVER, S-9, AROCLOR 1254, Method: STANDARD PLATE inactive; negative | Test System: AMES SALMONELLA TYPHIMURIUM, Strain/Indicator: TA1535, Metabolic Activation: NONE, Method: STANDARD PLATE inactive; negative | Test System: AMES SALMONELLA TYPHIMURIUM, Strain/Indicator: TA1535, Metabolic Activation: RAT, LIVER, S-9, AROCLOR 1254, Method: STANDARD PLATE inactive; negative | Test System: AMES SALMONELLA TYPHIMURIUM, Strain/Indicator: TA1537, Metabolic Activation: NONE, Method: STANDARD PLATE inactive; negative | Test System: AMES SALMONELLA TYPHIMURIUM, Strain/Indicator: TA1537, Metabolic Activation: RAT, LIVER, S-9, AROCLOR 1254, Method: STANDARD PLATE inactive; negative | Test System: AMES SALMONELLA TYPHIMURIUM, Strain/Indicator: TA1538, Metabolic Activation: NONE, Method: STANDARD PLATE inactive; negative | Test System: AMES SALMONELLA TYPHIMURIUM, Strain/Indicator: TA1538, Metabolic Activation: RAT, LIVER, S-9, AROCLOR 1254, Method: STANDARD PLATE inactive; negative
